Results taken from patent US12215085B2 (priority 2019, dated 2025).
Marks after values point to notes of the source that are not given here.

Assays:
[1] = system: rats with common carotid artery occlusion-induced vascular dementia; test: Water maze test, common carotid artery occlusion-induced vascular dementia rats; assay type: in vivo, rat; conditions: for adopted strategy for reaching the platform (the peripheral type and the random type %) / orientation angle for reaching the platform / speed for reaching the platform / swimming path length for reaching the platform / time for reaching the platform / Average speed / Number of crossing the platform / Orientation angle / Swimming path length in the platform area/total swimming path length × 100% / Time in the platform area / Time in the platform quadrants: succinate; for orientation angle for reaching the platform / speed for reaching the platform / swimming path length for reaching the platform / time for reaching the platform: x ± s
Source text: (§1) A rat blood vessel dementia model was made according to the references [ZHAO Xian-lin, FANG Xiu-bin, LI Dong-pei. Establishment of Vascular Dementia Model in Rats, J Chin Med Univ, 2002, 31 (3): 166-168; WANG Yong-yan, Zhang Bo-li, Editor-in-chief. Modern Chinese Medicine Clinic and Research on Vascular Dementia, People's Medical Publishing House, October 2003, First Version 214]: Chloral hydrate 0.4 g/kg was intraperitoneally injected for anesthetizing rats, and bilateral common carotid arteries were isolated and ligated. The animals were fed for 16 weeks, divided into groups on the last 7 days, and administered. The normal control group and the model group were administrated through the intragastric route with distilled water by 0.5 ml/100 g, the positive control group was administrated through the intragastric route with donepezil hydrochloride by 1.75 mg/kg (equivalent to 3.85 times the clinical daily dosage of 5 mg/70 kg), the low, medium and high-dose groups of Crystal Form A of octahydroaminoacridine succinate were administrated through the intragastric route with Crystal Form A of octahydroaminoacridine succinate by 0.7, 1.4 and 2.8 mg/kg (equivalent to 0.96, 1.92 and 3.85 times the clinical daily dosage of 8 mg/70 kg). The water maze test and the step-down test were carried out after continuous administration for 7 days, and the administration was continued during the test period. The water maze test was continuously performed for 7 days, in the first 6 days, in four different water entry points of quadrants 1, 2, 3 and 4, the time, the swimming path length, the orientation angle and the average speed of the rat reaching the platform were measured, meanwhile, the strategy for reaching the platform adopted by rats was observed, on the 7th day, the platform was removed, the number of rats crossing the platform in 2 minutes, the residence time in the platform area, the residence time in the platform quadrants, the percentage of the swimming path length in the platform area quadrants to the total swimming path length, the average speed and the orientation angle were measured. After the water maze test was finished, the step-down test was performed, and the number of electric shocks (or called as the error number) received by each rat within 5 minutes was recorded as the learning performance. The test was performed again after 24 hours, namely, the memory retention test, and the latent period for stepping-down the platform for the first time and the error number in five minutes were recorded. After the step-down test was finished, the brain was taken quickly for pathological examination, and the pathological changes of the hippocampus and the cortex were observed.

[2] = system: rats with common carotid artery occlusion-induced vascular dementia; test: Step-down test, common carotid artery occlusion-induced vascular dementia rats; assay type: in vivo, rat; conditions: for Day 1, Error number / Day 2, Error latency / Day 2, Error number: step-down method, x ± s, succinate
Source text: as §1

[3] = Day 1, 0.7 mg/kg intragastric, 0.7 mg/kg
[4] = Day 1, 1.4 mg/kg intragastric, 1.4 mg/kg
[5] = Day 1, 2.8 mg/kg intragastric, 2.8 mg/kg
[6] = Day 2, 0.7 mg/kg intragastric, 0.7 mg/kg
[7] = Day 2, 1.4 mg/kg intragastric, 1.4 mg/kg
[8] = Day 2, 2.8 mg/kg intragastric, 2.8 mg/kg
[9] = Day 3, 0.7 mg/kg intragastric, 0.7 mg/kg
[10] = Day 3, 1.4 mg/kg intragastric, 1.4 mg/kg
[11] = Day 3, 2.8 mg/kg intragastric, 2.8 mg/kg
[12] = Day 4, 0.7 mg/kg intragastric, 0.7 mg/kg
[13] = Day 4, 1.4 mg/kg intragastric, 1.4 mg/kg
[14] = Day 4, 2.8 mg/kg intragastric, 2.8 mg/kg
[15] = Day 5, 0.7 mg/kg intragastric, 0.7 mg/kg
[16] = Day 5, 1.4 mg/kg intragastric, 1.4 mg/kg
[17] = Day 5, 2.8 mg/kg intragastric, 2.8 mg/kg
[18] = Day 6, 0.7 mg/kg intragastric, 0.7 mg/kg
[19] = Day 6, 1.4 mg/kg intragastric, 1.4 mg/kg
[20] = Day 6, 2.8 mg/kg intragastric, 2.8 mg/kg
[21] = Day 7, 0.7 mg/kg intragastric, 0.7 mg/kg
[22] = Day 7, 1.4 mg/kg intragastric, 1.4 mg/kg
[23] = Day 7, 2.8 mg/kg intragastric, 2.8 mg/kg
[24] = 0.7 mg/kg intragastric, 0.7 mg/kg
[25] = 1.4 mg/kg intragastric, 1.4 mg/kg
[26] = 2.8 mg/kg intragastric, 2.8 mg/kg

Nc1c2c(nc3c1CCCC3)CCCC2.O=C(O)CCC(=O)O [Crystal Form A, 9-amino-1,2,3,4,5,6,7,8-octahydroacridine succinate]
swimming path length for reaching the platform vs model group ([1]; 1.4 mg/kg, Day 4, P<0.05): obviously shortened
latent period for reaching the platform vs model group ([1]; 1.4 mg/kg, Day 4 to Day 6, P<0.05 or P<0.01): obviously shortened
swimming path length for reaching the platform vs model group ([1]; 2.8 mg/kg, Day 3, P<0.05): obviously shortened
latent period for reaching the platform vs model group ([1]; 2.8 mg/kg, Day 3 to Day 6, P<0.05 or P<0.01): obviously shortened
orientation angle and swimming speed vs model group ([1]; 0.7, 1.4 and 2.8 mg/kg, Day 1 to Day 6): not obviously changed
residence time in the platform quadrants, average speed, orientation angle and percentage of the swimming path length in the platform area quadrants to the total swimming path length vs model group ([1]; 0.7, 1.4 and 2.8 mg/kg, Day 7): not obviously changed
number of rats crossing the platform within 2 minutes vs model group ([1]; 1.4 and 2.8 mg/kg, Day 7, P<0.05): obviously increased
conversion from the peripheral type or the random type to the tendency type or the linear type in the strategy for looking for the platform ([1]; 1.4 and 2.8 mg/kg, P<0.05 or P<0.01): obviously increased
adopted strategy for reaching the platform (the peripheral type and the random type %) [1, 3]: 75.00%
orientation angle for reaching the platform [1, 3]: 64.44 ± 24.84 °
speed for reaching the platform [1, 3]: 21.68 ± 6.14 cm/s
swimming path length for reaching the platform [1, 3]: 1250.31 ± 599.61 cm
time for reaching the platform [1, 3]: 60.40 ± 30.23 s
adopted strategy for reaching the platform (the peripheral type and the random type %) [1, 4]: 92.50%
orientation angle for reaching the platform [1, 4]: 63.00 ± 21.34 °
speed for reaching the platform [1, 4]: 22.93 ± 7.28 cm/s
swimming path length for reaching the platform [1, 4]: 1491.17 ± 529.46 cm
time for reaching the platform [1, 4]: 75.55 ± 32.44 s
adopted strategy for reaching the platform (the peripheral type and the random type %) [1, 5]: 87.50%
orientation angle for reaching the platform [1, 5]: 75.34 ± 20.00 °
speed for reaching the platform [1, 5]: 23.52 ± 5.71 cm/s
swimming path length for reaching the platform [1, 5]: 1555.98 ± 522.10 cm
time for reaching the platform [1, 5]: 69.25 ± 15.97 s
adopted strategy for reaching the platform (the peripheral type and the random type %) [1, 6]: 86.00%
orientation angle for reaching the platform [1, 6]: 52.13 ± 14.28 °
speed for reaching the platform [1, 6]: 23.68 ± 5.10 cm/s
swimming path length for reaching the platform [1, 6]: 1368.59 ± 636.46 cm
time for reaching the platform [1, 6]: 55.04 ± 31.39 s
adopted strategy for reaching the platform (the peripheral type and the random type %) [1, 7]: 65.00%
orientation angle for reaching the platform [1, 7]: 48.91 ± 15.52 °
speed for reaching the platform [1, 7]: 29.02 ± 6.70 cm/s
swimming path length for reaching the platform [1, 7]: 917.85 ± 346.36 cm
time for reaching the platform [1, 7]: 38.71 ± 18.28 s
adopted strategy for reaching the platform (the peripheral type and the random type %) [1, 8]: 82.50%
orientation angle for reaching the platform [1, 8]: 57.20 ± 22.99 °
speed for reaching the platform [1, 8]: 28.32 ± 7.08 cm/s
swimming path length for reaching the platform [1, 8]: 1025.55 ± 559.44 cm
time for reaching the platform [1, 8]: 40.76 ± 23.88 s
adopted strategy for reaching the platform (the peripheral type and the random type %) [1, 9]: 66.67%
orientation angle for reaching the platform [1, 9]: 57.18 ± 14.54 °
speed for reaching the platform [1, 9]: 26.27 ± 6.15 cm/s
swimming path length for reaching the platform [1, 9]: 698.11 ± 448.85 cm
time for reaching the platform [1, 9]: 29.31 ± 15.94 s
adopted strategy for reaching the platform (the peripheral type and the random type %) [1, 10]: 65.00* %
orientation angle for reaching the platform [1, 10]: 53.59 ± 14.56 °
speed for reaching the platform [1, 10]: 25.25 ± 5.42 cm/s
swimming path length for reaching the platform [1, 10]: 804.05 ± 351.90 cm
time for reaching the platform [1, 10]: 30.21 ± 14.13 s
adopted strategy for reaching the platform (the peripheral type and the random type %) [1, 11]: 60.00* %
orientation angle for reaching the platform [1, 11]: 41.65 ± 17.28 °
speed for reaching the platform [1, 11]: 24.59 ± 6.25 cm/s
swimming path length for reaching the platform [1, 11]: 512.17 ± 265.98 cm
time for reaching the platform [1, 11]: 21.75 ± 9.58 s
adopted strategy for reaching the platform (the peripheral type and the random type %) [1, 12]: 69.00%
orientation angle for reaching the platform [1, 12]: 55.89 ± 20.65 °
speed for reaching the platform [1, 12]: 25.53 ± 8.12 cm/s
swimming path length for reaching the platform [1, 12]: 838.00 ± 799.29 cm
time for reaching the platform [1, 12]: 35.34 ± 35.48 s
adopted strategy for reaching the platform (the peripheral type and the random type %) [1, 13]: 42.50** %
orientation angle for reaching the platform [1, 13]: 50.23 ± 20.86 °
speed for reaching the platform [1, 13]: 28.54 ± 9.09 cm/s
swimming path length for reaching the platform [1, 13]: 461.53 ± 216.01 cm
time for reaching the platform [1, 13]: 19.79 ± 10.95 s
adopted strategy for reaching the platform (the peripheral type and the random type %) [1, 14]: 62.50* %
orientation angle for reaching the platform [1, 14]: 57.00 ± 17.94 °
speed for reaching the platform [1, 14]: 27.72 ± 6.59 cm/s
swimming path length for reaching the platform [1, 14]: 827.58 ± 463.98 cm
time for reaching the platform [1, 14]: 22.79 ± 10.04 s
adopted strategy for reaching the platform (the peripheral type and the random type %) [1, 15]: 67.00%
orientation angle for reaching the platform [1, 15]: 62.38 ± 27.61 °
speed for reaching the platform [1, 15]: 24.14 ± 7.38 cm/s
swimming path length for reaching the platform [1, 15]: 878.23 ± 464.48 cm
time for reaching the platform [1, 15]: 71.16 ± 34.92 s
adopted strategy for reaching the platform (the peripheral type and the random type %) [1, 16]: 60.00%
orientation angle for reaching the platform [1, 16]: 55.03 ± 19.71 °
speed for reaching the platform [1, 16]: 29.15 ± 10.97 cm/s
swimming path length for reaching the platform [1, 16]: 515.67 ± 565.72 cm
time for reaching the platform [1, 16]: 16.28 ± 11.42 s
adopted strategy for reaching the platform (the peripheral type and the random type %) [1, 17]: 57.50%
orientation angle for reaching the platform [1, 17]: 55.78 ± 27.48 °
speed for reaching the platform [1, 17]: 27.44 ± 4.86 cm/s
swimming path length for reaching the platform [1, 17]: 676.75 ± 429.93 cm
time for reaching the platform [1, 17]: 21.57 ± 17.15 s
adopted strategy for reaching the platform (the peripheral type and the random type %) [1, 18]: 66.60%
orientation angle for reaching the platform [1, 18]: 46.48 ± 22.04 °
speed for reaching the platform [1, 18]: 22.02 ± 6.73 cm/s
swimming path length for reaching the platform [1, 18]: 606.62 ± 360.87 cm
time for reaching the platform [1, 18]: 37.72 ± 30.12 s
adopted strategy for reaching the platform (the peripheral type and the random type %) [1, 19]: 60.00* %
orientation angle for reaching the platform [1, 19]: 53.94 ± 12.47 °
speed for reaching the platform [1, 19]: 23.52 ± 2.43 cm/s
swimming path length for reaching the platform [1, 19]: 393.13 ± 236.85 cm
time for reaching the platform [1, 19]: 16.62 ± 8.69 s
adopted strategy for reaching the platform (the peripheral type and the random type %) [1, 20]: 55.00* %
orientation angle for reaching the platform [1, 20]: 52.70 ± 15.27 °
speed for reaching the platform [1, 20]: 23.55 ± 2.66 cm/s
swimming path length for reaching the platform [1, 20]: 433.81 ± 327.88 cm
time for reaching the platform [1, 20]: 18.98 ± 13.68 s
Average speed [1, 21]: 24.04 ± 7.96 cm/s
Number of crossing the platform [1, 21]: 5.55 ± 4.47
Orientation angle [1, 21]: 5.56 ± 4.47 °
Swimming path length in the platform area/total swimming path length × 100% [1, 21]: 26.83 ± 7.77%
Time in the platform area [1, 21]: 1.86 ± 1.78 s
Time in the platform quadrants [1, 21]: 33.93 ± 11.68 s
Average speed [1, 22]: 28.44 ± 9.02 cm/s
Number of crossing the platform [1, 22]: 12.20 ± 5.99
Orientation angle [1, 22]: 12.20 ± 5.99 °
Swimming path length in the platform area/total swimming path length × 100% [1, 22]: 31.89 ± 9.92%
Time in the platform area [1, 22]: 3.18 ± 2.02 s
Time in the platform quadrants [1, 22]: 40.31 ± 12.72 s
Average speed [1, 23]: 26.15 ± 5.40 cm/s
Number of crossing the platform [1, 23]: 10.40 ± 4.40
Orientation angle [1, 23]: 10.40 ± 4.40 °
Swimming path length in the platform area/total swimming path length × 100% [1, 23]: 28.40 ± 8.75%
Time in the platform area [1, 23]: 3.23 ± 3.70 s
Time in the platform quadrants [1, 23]: 33.72 ± 10.48 s
step-down error number vs model group ([2]; 1.4 mg/kg, Day 2, P<0.05): obviously reduced
step-down error number vs model group ([2]; 2.8 mg/kg, Day 1 and Day 2, P<0.05): obviously reduced
error latency vs model group ([2]; 2.8 mg/kg, Day 2, P<0.05): obviously prolonged
Day 1, Error number [2, 24]: 7.50 ± 4.06
Day 2, Error latency [2, 24]: 215.30 ± 83.07 s
Day 2, Error number [2, 24]: 1.70 ± 1.49
Day 1, Error number [2, 25]: 6.60 ± 2.88
Day 2, Error latency [2, 25]: 223.70 ± 75.02 s
Day 2, Error number [2, 25]: 1.30 ± 1.25
Day 1, Error number [2, 26]: 5.80 ± 2.65
Day 2, Error latency [2, 26]: 250.10 ± 72.32 s
Day 2, Error number [2, 26]: 0.90 ± 1.28
